# Experimental data as given in ChEMBL document CHEMBL1201862, “PubChem BioAssay data set” (2004).
# Calls of active or inactive are those of the source.
# Legend:
# HT-1080 = assay: cytotoxicity in HT1080 fibrosarcoma cells, cell-based, fluorescence readout (AID 620); type: functional; conditions: Homo sapiens
# [1] = target: Luciferin 4-monooxygenase (Photinus pyralis, UniProt P08659); assay: Counter Screen for Luciferase-based Assay Positives. [Related pubchem assays: 620, 618, 411 ]
# Cytochrome P450 3A4 = Cytochrome P450 3A4 (Homo sapiens, UniProt P08684); conditions: Potency;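 also: confirmatory qHTS run detecting inhibitors and substrates of CYP3A4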
# Streptokinase A = target: T1, Streptokinase A (Streptococcus pyogenes serotype M1, UniProt P10520); assay: S. pyogenes streptokinase expression inhibitors, potency, dose response, plasminogen activation absorbance, OD405 (AID 1914); type: functional, Streptococcus pyogenes M1 GAS;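 also: secreted streptokinase activity via plasminogen activation per viability signal from cell pellet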
# T1 sequence (P10520 whole entry): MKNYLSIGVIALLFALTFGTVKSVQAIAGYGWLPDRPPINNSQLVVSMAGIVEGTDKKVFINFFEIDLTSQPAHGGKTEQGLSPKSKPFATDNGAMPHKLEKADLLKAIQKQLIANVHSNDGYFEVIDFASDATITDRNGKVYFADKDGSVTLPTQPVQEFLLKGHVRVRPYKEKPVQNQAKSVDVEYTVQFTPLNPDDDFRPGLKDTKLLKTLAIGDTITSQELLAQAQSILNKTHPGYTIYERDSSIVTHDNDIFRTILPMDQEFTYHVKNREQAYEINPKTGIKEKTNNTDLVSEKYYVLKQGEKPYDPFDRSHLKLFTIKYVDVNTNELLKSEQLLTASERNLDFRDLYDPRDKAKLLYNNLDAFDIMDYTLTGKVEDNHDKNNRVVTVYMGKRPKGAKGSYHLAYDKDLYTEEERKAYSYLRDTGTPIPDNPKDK
# [2] = A Cell Based Secondary Assay To Explore Cytotoxicity of Compounds that Sensitize Mycobacterium Tuberculosis to Beta-Lactam Antibiotics.; type: functional
# Streptococcus = assay: Group A Streptococcus viability loss, dose response, counter-screen for streptokinase expression inhibitor project, luminescence, BacTiterGlo (AID 1915); type: functional, organism-based;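 also: potency for reduction of bacterial viability or growth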
# [3] = system: Streptococcus sp. 'group A'; assay: growth inhibition of control SK(-) GAS strain, dose response, counter-screen for streptokinase expression inhibitor project, luminescence, kanamycin, BacTiterGlo, confirmation (AID 1900); type: functional, organism-based
# Cytochrome P450 1A2 = target: T2, Cytochrome P450 1A2 (Homo sapiens, UniProt P05177);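 also: PubChem cytochrome P450 panel assay, CYP1A2 panel member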
# T2 sequence (P05177 whole entry): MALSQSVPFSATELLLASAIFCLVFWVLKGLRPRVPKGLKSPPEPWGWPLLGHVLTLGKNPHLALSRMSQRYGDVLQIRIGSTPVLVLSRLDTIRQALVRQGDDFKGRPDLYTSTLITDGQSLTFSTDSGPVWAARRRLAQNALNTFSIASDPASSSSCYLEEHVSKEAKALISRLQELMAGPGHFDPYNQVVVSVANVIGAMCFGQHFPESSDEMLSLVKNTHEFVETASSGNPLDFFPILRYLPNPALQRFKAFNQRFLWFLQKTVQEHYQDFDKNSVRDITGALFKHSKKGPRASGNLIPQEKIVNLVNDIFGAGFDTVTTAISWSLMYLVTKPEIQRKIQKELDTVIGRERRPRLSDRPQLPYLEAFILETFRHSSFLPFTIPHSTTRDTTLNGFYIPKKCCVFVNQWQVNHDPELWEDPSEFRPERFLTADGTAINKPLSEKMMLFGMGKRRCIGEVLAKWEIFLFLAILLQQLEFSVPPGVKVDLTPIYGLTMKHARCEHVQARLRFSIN
# [4] = target: T3, Polyadenylate-binding protein 1 (Homo sapiens, UniProt P11940); assay: PABP1 MLLE–PAM2 binding inhibitor potency, dose response, biochemical, fluorescence polarization, FITC-PAM2 peptide (AID 602259); type: functional; conditions: read-out: IC50_Mean
# [5] = target: T4, Zinc finger protein mex-5 (Caenorhabditis elegans, UniProt Q9XUB2); assay: MEX-5/TCR-2 RNA interaction inhibitors, dose response, biochemical, C. elegans, fluorescence polarization (AID 1960)
# T4 sequence (Q9XUB2 whole entry): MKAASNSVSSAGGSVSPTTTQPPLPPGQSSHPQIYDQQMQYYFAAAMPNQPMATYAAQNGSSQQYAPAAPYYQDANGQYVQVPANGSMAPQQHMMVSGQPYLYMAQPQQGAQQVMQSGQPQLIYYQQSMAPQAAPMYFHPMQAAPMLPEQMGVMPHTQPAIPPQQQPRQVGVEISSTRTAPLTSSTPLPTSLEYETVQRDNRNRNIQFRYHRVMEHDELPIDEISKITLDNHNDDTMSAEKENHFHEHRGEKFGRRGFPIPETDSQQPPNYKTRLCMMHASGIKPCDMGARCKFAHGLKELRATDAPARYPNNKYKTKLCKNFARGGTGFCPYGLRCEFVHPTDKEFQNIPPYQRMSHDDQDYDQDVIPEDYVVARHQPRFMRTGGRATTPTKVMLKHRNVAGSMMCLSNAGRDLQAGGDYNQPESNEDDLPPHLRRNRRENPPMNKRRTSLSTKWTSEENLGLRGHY
# Genome polyprotein = Genome polyprotein (dengue virus type 2, UniProt P29990); assay: Dengue-2 NS5 methyltransferase inhibitors, primary screen, biochemical, confirmation dose response (AID 588689); type: functional
# [6] = target: Induced myeloid leukemia cell differentiation protein Mcl-1 (Homo sapiens, UniProt Q07820); type: functional
# Estrogen receptor = target: T5, Estrogen receptor (Homo sapiens, UniProt P03372);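 also: potency for inhibiting coactivator peptide recruitment to the receptor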
# T5 sequence (P03372 whole entry): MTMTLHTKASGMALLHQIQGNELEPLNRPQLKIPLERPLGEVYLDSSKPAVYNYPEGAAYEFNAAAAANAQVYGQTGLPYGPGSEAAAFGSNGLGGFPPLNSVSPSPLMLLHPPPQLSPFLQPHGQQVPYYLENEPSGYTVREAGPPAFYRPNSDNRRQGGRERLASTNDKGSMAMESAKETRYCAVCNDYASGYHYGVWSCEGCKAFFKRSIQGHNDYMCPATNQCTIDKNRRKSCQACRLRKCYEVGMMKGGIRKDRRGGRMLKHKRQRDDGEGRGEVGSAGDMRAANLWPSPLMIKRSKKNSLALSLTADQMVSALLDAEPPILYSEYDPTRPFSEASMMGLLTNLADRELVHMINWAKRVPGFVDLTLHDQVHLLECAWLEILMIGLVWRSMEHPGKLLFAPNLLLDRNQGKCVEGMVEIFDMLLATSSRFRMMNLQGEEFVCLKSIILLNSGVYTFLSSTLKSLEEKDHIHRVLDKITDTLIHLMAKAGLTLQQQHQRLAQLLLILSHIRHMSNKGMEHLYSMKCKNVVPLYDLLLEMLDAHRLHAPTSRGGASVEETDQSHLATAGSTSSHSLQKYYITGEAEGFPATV
# [7] = target: T6, RNA-binding protein pos-1 (Caenorhabditis elegans, UniProt G5EF15); assay: inhibitors of POS-1/mex-3 RNA binding, dose response, biochemical, fluorescence polarization (AID 1964);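 also: purified POS-1 fused to maltose binding protein made in E. coli; potency of compounds blocking POS-1 binding to fluorescent RNA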
# T6 sequence (G5EF15 whole entry): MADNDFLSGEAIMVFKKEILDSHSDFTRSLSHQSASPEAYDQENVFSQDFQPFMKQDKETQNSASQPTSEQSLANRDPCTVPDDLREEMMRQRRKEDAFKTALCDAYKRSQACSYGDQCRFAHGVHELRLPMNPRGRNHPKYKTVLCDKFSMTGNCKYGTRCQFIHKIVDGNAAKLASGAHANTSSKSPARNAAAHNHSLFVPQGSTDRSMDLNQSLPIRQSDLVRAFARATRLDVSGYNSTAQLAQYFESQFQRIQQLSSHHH
# [8] = target: T3, Polyadenylate-binding protein 1; assay: PABP1 MLLE–PAM2 interaction inhibitors, dose response, miRNA deadenylation inhibitor project, biochemical, fluorescence polarization, Cy5-PAM2 peptide, secondary (AID 602260); type: functional; conditions: read-out: IC50_Mean
# Estrogen receptor beta = Estrogen receptor beta (Homo sapiens, UniProt Q92731); assay: ERβ–SRC-3 coactivator interaction inhibitors, confirmation, orthogonal assay, biochemical, ELISA, streptavidin-HRP readout (AID 1060)
# [9] = cytotoxicity in HEK-293T cells, dose response, cytotoxicity control for BCR NF-kB inhibitor project, luminescence, B-cell screen hits (AID 489021); type: functional, cell-based;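 also: HEK-293T cells carrying an NF-kB luciferase reporter; cells exposed to compound for about 14 hours before viability readout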
# [10] = growth suppression of PTEN-null colon cells, dose response, cell-based, HCT116 PTEN knockout (AID 1047); type: functional;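 also: HCT116 colon tumor cells with PTEN knocked out; cells exposed to compound for 60 hours before readout; potency for loss of cell viability measured by luminescence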
# [11] = inhibitors of intracellular T. cruzi replication, confirmation, NIH3T3 host cells, beta-gal luminescence (AID 2044); type: functional, cell-based;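 also: intracellular parasites grown in NIH/3T3 mouse fibroblasts as host cells; luminescent beta-galactosidase reporter signal from transgenic T. cruzi replicating inside host cells; inhibitors lower the luminescence signal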
# [12] = cytotoxicity toward NIH3T3 fibroblasts, dose response, counter-screen, cell-based, ATP luminescence, mouse fibroblasts (AID 2010); type: functional;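 also: cells exposed to compound for about 90 hours before reading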
# [13] = growth suppression of beta-catenin-knockout colon cells, dose response, cell-based, HCT116, human colon tumor (AID 1045); type: functional;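 also: HCT116 colon tumor cells with beta catenin knocked out; cells exposed to compound for 60 hours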
# [14] = target: DNA dC->dU-editing enzyme APOBEC-3G (Homo sapiens, UniProt Q9HC16); assay: Dose Response confirmation of small molecule APOBEC3G DNA Deaminase Inhibitors via a fluorescence-based single-stranded DNA deaminase assay. [Related pubchem assays (depositor defined):AID493012, AID493028]; type: functional
# DNA dC->dU-editing enzyme APOBEC-3G, sequence (Q9HC16 whole entry): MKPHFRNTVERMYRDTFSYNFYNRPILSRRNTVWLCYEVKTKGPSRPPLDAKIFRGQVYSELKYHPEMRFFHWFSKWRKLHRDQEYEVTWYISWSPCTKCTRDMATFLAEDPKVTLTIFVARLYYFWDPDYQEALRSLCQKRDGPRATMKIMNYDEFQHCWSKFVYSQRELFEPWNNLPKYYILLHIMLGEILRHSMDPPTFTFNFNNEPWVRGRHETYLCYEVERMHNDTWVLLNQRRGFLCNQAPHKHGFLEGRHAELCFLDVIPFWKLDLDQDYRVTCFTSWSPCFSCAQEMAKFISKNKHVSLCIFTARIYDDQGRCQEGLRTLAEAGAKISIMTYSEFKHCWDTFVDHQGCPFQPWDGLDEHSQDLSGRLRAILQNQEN
# Cytochrome P450 3A4, sequence (P08684 whole entry): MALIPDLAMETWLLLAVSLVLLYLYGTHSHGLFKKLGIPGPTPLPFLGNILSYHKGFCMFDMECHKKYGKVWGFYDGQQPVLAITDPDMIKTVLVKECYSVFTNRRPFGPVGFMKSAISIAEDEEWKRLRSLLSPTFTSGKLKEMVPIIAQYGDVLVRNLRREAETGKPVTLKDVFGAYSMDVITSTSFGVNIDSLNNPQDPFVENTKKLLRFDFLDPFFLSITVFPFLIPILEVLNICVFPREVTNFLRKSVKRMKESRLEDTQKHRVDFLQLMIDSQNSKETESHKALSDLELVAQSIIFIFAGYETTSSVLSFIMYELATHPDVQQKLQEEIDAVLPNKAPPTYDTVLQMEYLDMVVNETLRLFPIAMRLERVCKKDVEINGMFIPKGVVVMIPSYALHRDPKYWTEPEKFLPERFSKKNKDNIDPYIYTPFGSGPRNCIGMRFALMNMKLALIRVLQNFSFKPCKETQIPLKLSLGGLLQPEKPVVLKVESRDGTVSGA
# Luciferin 4-monooxygenase, sequence (P08659 whole entry): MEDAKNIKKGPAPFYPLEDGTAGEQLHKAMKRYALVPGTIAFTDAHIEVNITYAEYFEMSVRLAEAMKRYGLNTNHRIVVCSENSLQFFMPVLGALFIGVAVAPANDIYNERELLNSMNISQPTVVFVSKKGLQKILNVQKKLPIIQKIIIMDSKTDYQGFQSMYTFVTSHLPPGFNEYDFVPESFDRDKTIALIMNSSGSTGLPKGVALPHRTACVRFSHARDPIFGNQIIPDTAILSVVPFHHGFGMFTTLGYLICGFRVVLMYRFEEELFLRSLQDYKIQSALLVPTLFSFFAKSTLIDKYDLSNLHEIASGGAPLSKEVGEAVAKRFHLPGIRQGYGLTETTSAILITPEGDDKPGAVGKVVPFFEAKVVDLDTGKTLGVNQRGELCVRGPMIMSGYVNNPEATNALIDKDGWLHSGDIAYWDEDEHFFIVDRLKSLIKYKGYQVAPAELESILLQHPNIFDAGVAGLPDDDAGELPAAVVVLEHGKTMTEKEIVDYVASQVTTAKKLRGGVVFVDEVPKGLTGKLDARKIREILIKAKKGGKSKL
# T3 sequence (P11940 whole entry): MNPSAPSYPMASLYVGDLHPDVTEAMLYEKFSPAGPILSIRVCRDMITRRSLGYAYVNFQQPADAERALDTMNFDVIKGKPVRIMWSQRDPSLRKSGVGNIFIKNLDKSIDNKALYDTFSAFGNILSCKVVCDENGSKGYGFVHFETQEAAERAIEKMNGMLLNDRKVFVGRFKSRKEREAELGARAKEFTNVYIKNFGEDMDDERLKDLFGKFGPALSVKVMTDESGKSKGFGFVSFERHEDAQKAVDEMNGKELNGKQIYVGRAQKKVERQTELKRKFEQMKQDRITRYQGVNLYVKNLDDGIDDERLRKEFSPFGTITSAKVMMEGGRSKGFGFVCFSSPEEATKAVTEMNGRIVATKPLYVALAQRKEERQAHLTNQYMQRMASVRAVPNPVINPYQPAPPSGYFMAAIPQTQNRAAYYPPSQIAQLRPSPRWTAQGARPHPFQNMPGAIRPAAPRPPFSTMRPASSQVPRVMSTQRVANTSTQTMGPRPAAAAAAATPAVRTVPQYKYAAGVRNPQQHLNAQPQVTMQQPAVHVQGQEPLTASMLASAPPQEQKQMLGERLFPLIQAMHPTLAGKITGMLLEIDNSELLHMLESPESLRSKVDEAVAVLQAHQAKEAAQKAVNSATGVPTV
# Induced myeloid leukemia cell differentiation protein Mcl-1, sequence (Q07820 whole entry): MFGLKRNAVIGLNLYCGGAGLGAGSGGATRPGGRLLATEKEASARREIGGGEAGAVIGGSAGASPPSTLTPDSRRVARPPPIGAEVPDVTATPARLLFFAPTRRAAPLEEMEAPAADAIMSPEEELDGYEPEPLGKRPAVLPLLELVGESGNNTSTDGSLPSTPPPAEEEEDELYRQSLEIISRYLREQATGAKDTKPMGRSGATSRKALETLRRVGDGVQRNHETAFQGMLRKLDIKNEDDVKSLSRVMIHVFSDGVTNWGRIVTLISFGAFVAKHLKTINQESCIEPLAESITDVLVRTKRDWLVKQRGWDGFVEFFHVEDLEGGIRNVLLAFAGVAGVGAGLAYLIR
# Estrogen receptor beta, sequence (Q92731 whole entry): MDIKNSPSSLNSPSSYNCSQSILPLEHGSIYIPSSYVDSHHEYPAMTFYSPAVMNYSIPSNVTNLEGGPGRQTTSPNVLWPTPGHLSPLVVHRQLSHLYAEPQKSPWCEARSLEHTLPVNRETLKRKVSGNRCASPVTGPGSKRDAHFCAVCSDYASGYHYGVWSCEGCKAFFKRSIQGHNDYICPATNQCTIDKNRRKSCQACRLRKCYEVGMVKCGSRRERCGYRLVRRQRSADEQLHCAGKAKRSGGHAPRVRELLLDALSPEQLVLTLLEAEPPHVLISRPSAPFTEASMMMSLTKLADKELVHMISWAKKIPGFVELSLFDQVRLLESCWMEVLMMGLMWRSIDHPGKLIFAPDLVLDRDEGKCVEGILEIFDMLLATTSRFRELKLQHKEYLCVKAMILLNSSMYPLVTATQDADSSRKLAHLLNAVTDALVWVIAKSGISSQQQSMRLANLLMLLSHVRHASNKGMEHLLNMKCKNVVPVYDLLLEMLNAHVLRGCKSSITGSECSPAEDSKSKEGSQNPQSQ
# Genome polyprotein, sequence (P29990 2492-3391 limits assumed): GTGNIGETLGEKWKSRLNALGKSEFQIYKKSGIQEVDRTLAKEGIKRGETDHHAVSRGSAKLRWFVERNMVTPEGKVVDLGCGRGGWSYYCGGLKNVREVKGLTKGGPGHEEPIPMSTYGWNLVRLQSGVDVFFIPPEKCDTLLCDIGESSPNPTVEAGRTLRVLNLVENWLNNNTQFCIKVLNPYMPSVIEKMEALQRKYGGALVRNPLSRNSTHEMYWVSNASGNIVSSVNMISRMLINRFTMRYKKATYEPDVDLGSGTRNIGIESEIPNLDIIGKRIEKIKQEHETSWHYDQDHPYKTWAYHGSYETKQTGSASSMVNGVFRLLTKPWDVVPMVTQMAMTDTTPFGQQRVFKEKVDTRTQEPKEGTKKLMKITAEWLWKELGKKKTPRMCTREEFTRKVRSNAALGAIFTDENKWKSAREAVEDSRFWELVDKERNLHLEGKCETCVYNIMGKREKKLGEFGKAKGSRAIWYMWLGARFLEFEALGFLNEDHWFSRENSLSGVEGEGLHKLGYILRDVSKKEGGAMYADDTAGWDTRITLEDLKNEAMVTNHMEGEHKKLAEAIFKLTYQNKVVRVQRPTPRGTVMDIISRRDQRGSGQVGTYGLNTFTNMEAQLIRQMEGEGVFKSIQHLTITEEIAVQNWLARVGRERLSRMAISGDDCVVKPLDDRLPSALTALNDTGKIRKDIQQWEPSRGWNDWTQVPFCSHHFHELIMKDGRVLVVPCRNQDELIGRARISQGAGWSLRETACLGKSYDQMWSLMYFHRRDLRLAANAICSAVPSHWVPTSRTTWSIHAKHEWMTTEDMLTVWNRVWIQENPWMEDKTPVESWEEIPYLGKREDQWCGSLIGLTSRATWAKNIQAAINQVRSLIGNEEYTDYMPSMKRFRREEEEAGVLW
smiles,measurement,setting,value
Brc1ccccc1-c1nc(-c2ccccc2)no1,EC50,HT-1080,> 50 µM (not active)
same,EC50,[1],5.42 µM (active)
CC(=O)OCC1=C(C(=O)O)N2C(=O)C(NC(=O)Cc3cccs3)C2SC1 (centres undefined),AC50,Cytochrome P450 3A4,31.6 µM (inconclusive)
COC(=O)C1OC(=O)C2O[C@@]23[C@]2(C)C(OC(C)=O)CC4C(C)(C)C(=O)CC[C@]4(C)C2CC[C@@]13C (some centres undefined),AC50,Cytochrome P450 3A4,39.8 µM (inconclusive)
COc1cccc(C2C(C)CCC3C(=O)N(C)C(C(C)C)C(=O)N32)c1 (centres undefined),AC50,Cytochrome P450 3A4,2 µM (inconclusive)
CC1(C)CN=C(Nc2nc3ccccc3s2)S1,EC50,Streptokinase A,> 150 µM (not active)
same,CC50,[2],> 40 µM (active)
same,EC50,Streptococcus,> 150 µM (not active)
same,EC50,[3],15.3 µM (active)
CC(C)CC(C)Nc1ccc(Nc2ccccc2)cc1 (centres undefined),AC50,Cytochrome P450 3A4,25.1 µM (inconclusive)
O=C(CN(Cc1ccco1)C(=O)c1cccc(Cl)c1)Nc1c(Cl)cc(Cl)cc1Cl,CC50,[2],24 µM (active)
same,AC50,Cytochrome P450 1A2,12.6 µM (inconclusive)
O=C(NCCO)c1ccc2nc(-c3ccco3)c(-c3ccco3)nc2c1,IC50,[4],> 66 µM (inactive)
same,EC50,[5],17.5 µM (active)
same,IC50,Genome polyprotein,67.7 µM (active)
same,IC50,[6],< 0.4 µM (active)
same,IC50,Estrogen receptor,> 50 µM (not active)
same,EC50,[7],> 300 µM (not active)
same,IC50,[8],> 66 µM (inactive)
same,IC50,Estrogen receptor beta,11.4 µM (not active)
CC(C)(C)c1ccc(OCC(O)CSc2nnc[nH]2)cc1 (centres undefined),EC50,[1],1.29 µM (active)
CC(C)CCNC(=O)CCCOc1cc(=O)n(C)c2ccccc12,IC50,[9],> 80 µM (inactive)
CCCc1nc2c(C)cc(-c3nc4ccccc4n3C)cc2n1Cc1ccc(-c2ccccc2C(=O)O)cc1,IC50,[9],> 80 µM (inactive)
Cc1cccc(C(=O)N2CCN(C(=O)c3cccc(C)c3)C(C)C2)c1 (centres undefined),EC50,HT-1080,> 50 µM (not active)
same,EC50,[1],10.6 µM (active)
Cc1nn(Cc2ccc(Cl)cc2)c(C)c1NC(=O)CSc1nc2c(c(C(F)(F)F)n1)CCc1ccccc1-2,EC50,[10],12.8 µM (active)
same,EC50,[11],1.72 µM (active)
same,CC50,[2],29 µM (active)
same,EC50,[12],> 60 µM (not active)
same,EC50,[13],14 µM (active)
O=C(O)COc1ccc(-c2nccc(-c3ccccn3)n2)cc1,IC50,[9],> 80 µM (inactive)
CC(C)(C)C(=O)N1CCc2cc(-c3csc(N)n3)ccc21,EC50,HT-1080,> 50 µM (not active)
same,EC50,[1],9.92 µM (active)
CCCC(C)c1nnc(NC(=O)CCS(=O)(=O)c2ccccc2)s1 (centres undefined),IC50,[14],32.2 µM (active)
